Non-standard residues stand in square brackets, D forms with d. Residues, ends and D or L forms follow the SMILES beside them. Gla = N[C@@H](CC(C(=O)O)C(=O)O)C(=O)O
Tested on: four NR2 NMDA receptor subtypes (NR2A, NR2B, NR2C, NR2D with NR1-2b)
Type: cell-based, rat

CC(C)C[C@H](NC(=O)[C@H](CC(C(=O)O)C(=O)O)NC(=O)[C@H](CCCNC(=N)N)NC(=O)[C@H](C)NC(=O)[C@H](Cc1ccccc1)NC(=O)[C@H](CC(C(=O)O)C(=O)O)NC(=O)[C@H](CCC(N)=O)NC(=O)[C@H](CC(N)=O)NC(=O)[C@H](CC(C(=O)O)C(=O)O)NC(=O)[C@H](C)NC(=O)[C@H](CC(C)C)NC(=O)[C@H](CC(C(=O)O)C(=O)O)NC(=O)[C@H](CC(C(=O)O)C(=O)O)NC(=O)[C@H](CCC(=O)O)NC(=O)CN)C(=O)N[C@@H](C)C(=O)N[C@@H](CC(N)=O)C(N)=O [ConRl-B[desKAO;N8Q9]] (H-GE[Gla][Gla]LA[Gla]NQ[Gla]FAR[Gla]LAN-NH2; N-terminus assumed)
activity on the four NR2 NMDA receptor subtypes, in words: little or no activity

Reference: publication PMC4153739 (Biochemistry, 2012)
